Results published in patent US20250295646A1, “METHODS OF USE OF T-TYPE CALCIUM CHANNEL MODULATORS” (Praxis Precision Medicines, Inc., priority 2022, published 2025).
Like-named read-outs stand apart in the source and are kept apart here.

Key:
hCav3.3 = target: T1, hCav3.3 (Homo sapiens, UniProt Q9P0X4); assay: PatchXpress patch clamp, voltage dependent block (half-inactivated state); type: cell-based
T1 construct: expressed in transfected cells; host or cells: HEK-293

[1] = Food effect (high-fat, high-calorie meal) on pharmacokinetics, single 20 mg dose; type: in vivo, human; conditions: for Tmax / AUC(0-t) / AUC(0-inf) / Cmax: human, plasma, 20 mg; for Tmax: oral, single 20 mg; for AUC(0-t) / AUC(0-inf) / Cmax: po
Experimental: The effect of a high-fat, high-calorie meal on the pharmacokinetics of a compound of formula (II) was evaluated in an open-label, sequential fashion following a single 20 mg dose of formulation 5 in participants who had previously received a 20 mg dose of formulation 5 under fasted conditions.

T1 sequence (Q9P0X4 whole entry): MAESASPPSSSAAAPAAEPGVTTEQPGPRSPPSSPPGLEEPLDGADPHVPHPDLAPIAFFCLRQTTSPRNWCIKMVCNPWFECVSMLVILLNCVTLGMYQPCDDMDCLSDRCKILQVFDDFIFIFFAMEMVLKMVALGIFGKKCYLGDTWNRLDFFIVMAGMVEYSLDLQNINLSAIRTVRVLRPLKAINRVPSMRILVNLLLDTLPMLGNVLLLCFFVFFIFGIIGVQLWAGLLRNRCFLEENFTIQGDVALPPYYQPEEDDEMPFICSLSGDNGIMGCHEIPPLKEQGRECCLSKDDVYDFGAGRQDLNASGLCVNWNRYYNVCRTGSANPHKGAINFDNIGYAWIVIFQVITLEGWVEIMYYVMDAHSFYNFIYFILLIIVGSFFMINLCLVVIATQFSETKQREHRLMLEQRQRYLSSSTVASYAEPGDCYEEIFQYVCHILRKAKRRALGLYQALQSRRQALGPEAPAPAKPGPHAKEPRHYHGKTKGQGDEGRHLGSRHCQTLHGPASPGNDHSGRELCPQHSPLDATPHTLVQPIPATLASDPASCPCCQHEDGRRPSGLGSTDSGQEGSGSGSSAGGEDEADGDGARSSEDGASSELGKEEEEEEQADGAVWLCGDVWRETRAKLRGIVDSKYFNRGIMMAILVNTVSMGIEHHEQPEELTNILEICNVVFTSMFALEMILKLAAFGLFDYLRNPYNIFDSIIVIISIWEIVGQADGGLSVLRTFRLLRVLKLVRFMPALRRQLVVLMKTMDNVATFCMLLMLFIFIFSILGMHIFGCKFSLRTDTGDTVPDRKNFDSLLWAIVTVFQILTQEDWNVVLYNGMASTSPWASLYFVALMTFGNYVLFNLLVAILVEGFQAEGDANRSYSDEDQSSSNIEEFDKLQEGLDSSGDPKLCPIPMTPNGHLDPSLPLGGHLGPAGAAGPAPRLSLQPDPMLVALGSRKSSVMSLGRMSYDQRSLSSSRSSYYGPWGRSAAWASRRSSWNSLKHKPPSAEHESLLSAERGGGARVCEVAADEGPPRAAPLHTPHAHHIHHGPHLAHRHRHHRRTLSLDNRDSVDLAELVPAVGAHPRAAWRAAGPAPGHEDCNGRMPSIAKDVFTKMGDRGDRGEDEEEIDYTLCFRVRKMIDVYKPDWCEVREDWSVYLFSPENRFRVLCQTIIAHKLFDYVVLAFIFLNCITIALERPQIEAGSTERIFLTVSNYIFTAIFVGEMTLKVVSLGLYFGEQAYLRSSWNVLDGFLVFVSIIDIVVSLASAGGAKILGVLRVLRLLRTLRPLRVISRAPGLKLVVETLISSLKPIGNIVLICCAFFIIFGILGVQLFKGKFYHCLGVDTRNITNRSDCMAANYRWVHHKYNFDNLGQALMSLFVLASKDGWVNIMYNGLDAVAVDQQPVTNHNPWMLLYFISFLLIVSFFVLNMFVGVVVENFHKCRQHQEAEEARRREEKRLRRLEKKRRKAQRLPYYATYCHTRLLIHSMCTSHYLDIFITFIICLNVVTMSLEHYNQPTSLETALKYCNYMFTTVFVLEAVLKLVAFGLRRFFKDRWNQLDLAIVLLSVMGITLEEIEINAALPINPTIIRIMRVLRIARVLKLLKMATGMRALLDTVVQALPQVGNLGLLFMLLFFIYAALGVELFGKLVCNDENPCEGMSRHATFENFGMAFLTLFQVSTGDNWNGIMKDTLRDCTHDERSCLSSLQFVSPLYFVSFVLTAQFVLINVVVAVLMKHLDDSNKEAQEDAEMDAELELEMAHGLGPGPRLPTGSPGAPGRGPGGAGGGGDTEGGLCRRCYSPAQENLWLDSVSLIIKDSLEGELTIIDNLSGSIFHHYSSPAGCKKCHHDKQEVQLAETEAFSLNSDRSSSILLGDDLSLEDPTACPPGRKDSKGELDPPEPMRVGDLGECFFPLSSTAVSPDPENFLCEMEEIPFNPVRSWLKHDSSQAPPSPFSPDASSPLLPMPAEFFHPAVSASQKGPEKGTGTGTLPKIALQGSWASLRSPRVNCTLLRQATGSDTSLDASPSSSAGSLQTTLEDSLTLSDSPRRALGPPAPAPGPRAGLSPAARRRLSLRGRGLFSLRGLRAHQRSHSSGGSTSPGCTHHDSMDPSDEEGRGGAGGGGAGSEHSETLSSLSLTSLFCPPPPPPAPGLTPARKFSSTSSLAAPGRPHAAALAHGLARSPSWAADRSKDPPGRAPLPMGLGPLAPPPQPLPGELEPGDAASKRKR

In the case of `CC(C)(C)NC(=O)CN1CCC(CNC(=O)c2cc(F)cc(Cl)c2)CC1.Cl` [compound of formula (II), N-((1-(2-(tert-butylamino)-2-oxoethyl)piperidin-4-yl)methyl)-3-chloro-5-fluorobenzamide hydrochloride], the “tonic block/voltage dependent block (TB/VDB) ratio” value (hCav3.3) is reported as 4.0, the Tmax ([1]; fasted) is reported as 4 h and the Tmax ([1]; high-fat, high-calorie meal) is reported as 5 h. It also gave an AUC(0-t) ([1]; single 20 mg oral dose, fasted, read-out: AUClast, Fasted Geometric Mean (Adjusted)) of 905 ng·h/mL, an AUC(0-inf) ([1]; single 20 mg oral dose, fasted, read-out: AUC∞, Fasted Geometric Mean (Adjusted)) of 942 ng·h/mL and a Cmax ([1]; single 20 mg oral dose, fasted, read-out: Cmax, Fasted Geometric Mean (Adjusted)) of 43.6 ng/mL. It also gave an AUC(0-t) ([1]; single 20 mg oral dose, high-fat/high-calorie meal, read-out: AUClast, Fed Geometric Mean (Adjusted)) of 1040 ng·h/mL, an AUC(0-inf) ([1]; single 20 mg oral dose, high-fat/high-calorie meal, read-out: AUC∞, Fed Geometric Mean (Adjusted)) of 1080 ng·h/mL and a Cmax ([1]; single 20 mg oral dose, high-fat/high-calorie meal, read-out: Cmax, Fed Geometric Mean (Adjusted)) of 64.7 ng/mL. For the same molecule, the “AUClast Ratio (fed/fasted)” value ([1]; single 20 mg oral dose) was 1.14, the “AUC∞ Ratio (fed/fasted)” value ([1]; single 20 mg oral dose) was 1.15 and the “Cmax Ratio (fed/fasted)” value ([1]; single 20 mg oral dose) was 1.49.
